Test results as given in US20070049593A1 (priority 2004, published 2007).
Where a name gives a salt, the structure may show the parent alone.

Target: T1, HCV polymerase (Hepatitis C virus genotype 1b, UniProt P26663)
T1 construct: a region encoding NS5B (J Virol 1991 March, 65(3), 1105-13, 544 amino acids after deletion of 47 amino acids on the C-terminal); 6xHis (C); made in house; host or cells: Escherichia coli
Assay: biochemical
Set-up: species or system HCV BK strain
Excerpt: The evaluation of the HCV polymerase inhibitory activity of the compound of the present invention is explained in the following. This polymerase is an enzyme coded for by the non-structural protein region called NS5B on the genome RNA of HCV (EMBO J., 15:12-22, 1996).
Using, as a template, a cDNA clone corresponding to the full length genome RNA of HCV BK strain obtained from the blood of a patient with hepatitis C, a region encoding NS5B (J Virol 1991 March, 65(3), 1105-13, 544 amino acids after deletion of 47 amino acids on the C-terminal) was amplified by PCR. The objective gene was prepared by adding a 6 His tag {base pair encoding 6 continuous histidine (His)}to the 3′ end thereof and transformed to Escherichia coli. The Escherichia coli capable of producing the objective protein was cultured. The obtained cells were suspended in a buffer solution and crushed in a microfluidizer.
Using a synthetic primer designed based on the sequence of HCV genomic 3′ untranslated region, a DNA fragment (148 bp) containing polyU and 3′X sequence was entirely synthesized and cloned into plasmid pBluescript SK II(+) (Stratagene). The cDNA encoding full length NS5B, which was prepared in i) above, was digested with restriction enzyme KpnI to give a cDNA fragment containing the nucleotide sequence of from the restriction enzyme cleavage site to the termination codon. This cDNA fragment was inserted into the upstream of 3′ untranslated region of the DNA in pBluescript SK II(+) and ligated. The about 450 bp inserted DNA sequence was used as a template in the preparation of substrate RNA.
RNA was synthesized (37° C., 3 hr) by run-off method using this purified DNA as a template, a promoter of pBluescript SK II(+), MEGAscript RNA synthesis kit (Ambion) and T7 RNA polymerase. DNase I was added and the mixture was incubated for 1 hr. The template DNA was removed by decomposition to give a crude RNA product.
A test substance (compound of the present invention) and a reaction mixture (30 μl) having the following composition were reacted at 25° C. for 90 min.
10% Trichloroacetic acid at 4° C. and 1% sodium pyrophosphate solution (150 μl) were added to this reaction mixture to stop the reaction. The reaction mixture was left standing in ice for 15 min to insolubilize RNA. This RNA was trapped on a glass filter (Whatman GF/C and the like) upon filtration by suction. This filter was washed with a solution containing 1% trichloroacetic acid and 0.1% sodium pyrophosphate, washed with 90% ethanol and dried. A liquid scintillation cocktail (Packard) was added and the radioactivity of RNA synthesized by the enzyme reaction was measured on a liquid scintillation counter.
The HCV polymerase inhibitory activity (IC50) of the compound of the present invention was calculated from the values of radioactivity of the enzyme reaction with and without the test substance.
Reaction mixture: HCV polymerase (0.5 μg/ml) obtained in i), substrate RNA (5 μg/ml) obtained in ii), ATP (50 μM), GTP (50 μM), CTP ([…]), UTP (2 μM), [5,6-^3H]UTP (46 Ci/mmol (Amersham), 1 μCi) 20 mM Tris-HCl (pH 7.5), EDTA (1 mM), MgCl2 (5 mM), NaCl (50 mM), DTT (1 mM), BSA (0.01%)

T1 sequence (P26663 2420-2963): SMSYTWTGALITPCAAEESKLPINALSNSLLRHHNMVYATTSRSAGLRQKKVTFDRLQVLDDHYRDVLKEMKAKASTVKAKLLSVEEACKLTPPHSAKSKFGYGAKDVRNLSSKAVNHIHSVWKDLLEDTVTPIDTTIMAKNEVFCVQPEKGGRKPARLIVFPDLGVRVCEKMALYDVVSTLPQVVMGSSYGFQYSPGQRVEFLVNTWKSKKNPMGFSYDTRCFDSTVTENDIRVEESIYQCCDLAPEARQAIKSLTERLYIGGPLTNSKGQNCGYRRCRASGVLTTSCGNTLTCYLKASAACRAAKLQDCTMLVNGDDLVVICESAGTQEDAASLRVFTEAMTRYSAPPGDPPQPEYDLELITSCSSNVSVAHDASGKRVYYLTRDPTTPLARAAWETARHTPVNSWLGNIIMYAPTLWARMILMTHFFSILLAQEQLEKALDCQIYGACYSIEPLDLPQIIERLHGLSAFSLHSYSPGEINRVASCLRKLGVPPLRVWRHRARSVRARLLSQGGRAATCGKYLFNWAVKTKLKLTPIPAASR

| Structure (SMILES) | IC50 [nM] |
| --- | --- |
| CCN1CCN(CCN2CCn3c(c(C4CCCCC4)c4ccc(C(=O)O)cc43)-c3ccccc32)CC1 [Example 1-38, 13-cyclohexyl-5-[2-(4-ethylpiperazin-1-yl)ethyl]-6,7-dihydro-5H-benzo[5,6][1,4]diazepino[7,1-a]indole-10-carboxylic acid dihydrochloride] | < 100 |
| COC1CCN(CCN2CCn3c(c(C4CCCCC4)c4ccc(C(=O)O)cc43)-c3ccccc32)CC1 [Example 1-39, 13-cyclohexyl-5-[2-(4-methoxypiperidin-1-yl)ethyl]-6,7-dihydro-5H-benzo[5,6][1,4]diazepino[7,1-a]indole-10-carboxylic acid dihydrochloride] | < 100 |
| COCCN(C)CCN1CCn2c(c(C3CCCCC3)c3ccc(C(=O)O)cc32)-c2ccccc21 [Example 1-40, 13-cyclohexyl-5-{2-[N-(2-methoxyethyl)-N-methylamino]ethyl}-6,7-dihydro-5H-benzo[5,6][1,4]diazepino[7,1-a]indole-10-carboxylic acid dihydrochloride] | < 100 |
| O=C(O)c1ccc2c(C3CCCCC3)c3n(c2c1)CCN(CCc1ccccc1)c1ccccc1-3 [Example 1-41, 13-cyclohexyl-5-phenethyl-6,7-dihydro-5H-benzo[5,6][1,4]diazepino[7,1-a]indole-10-carboxylic acid monohydrochloride] | < 100 |
| O=C(O)c1ccc2c(C3CCCCC3)c3n(c2c1)CCN(CCN1CCC(O)CC1)c1ccccc1-3 [Example 1-42, 13-cyclohexyl-5-[2-(4-hydroxypiperidin-1-yl)ethyl]-6,7-dihydro-5H-benzo[5,6][1,4]diazepino[7,1-a]indole-10-carboxylic acid dihydrochloride] | < 100 |
| CN(C)C1CCN(C(=O)CN2CCn3c(c(C4CCCCC4)c4ccc(C(=O)O)cc43)-c3ccccc32)CC1 [Example 1-43, 13-cyclohexyl-5-[2-(4-dimethylaminopiperidin-1-yl)-2-oxoethyl]-6,7-dihydro-5H-benzo[5,6][1,4]diazepino[7,1-a]indole-10-carboxylic acid dihydrochloride] | < 100 |
| CN(C)C1CCN(CCN2CCn3c(c(C4CCCCC4)c4ccc(C(=O)O)cc43)-c3ccccc32)CC1 [Example 1-44, 13-cyclohexyl-5-[2-(4-dimethylaminopiperidin-1-yl)ethyl]-6,7-dihydro-5H-benzo[5,6][1,4]diazepino[7,1-a]indole-10-carboxylic acid trihydrochloride] | < 100 |
| O=C(O)c1ccc2c(C3CCCCC3)c3n(c2c1)CCN(CC(=O)N1CCS(=O)(=O)CC1)c1ccccc1-3 [Example 1-45, 13-cyclohexyl-5-[2-(1,1-dioxothiomorpholin-4-yl)-2-oxoethyl]-6,7-dihydro-5H-benzo[5,6][1,4]diazepino[7,1-a]indole-10-carboxylic acid monohydrochloride] | < 100 |
| CCOC(=O)N1CCN(C(=O)CN2CCn3c(c(C4CCCCC4)c4ccc(C(=O)O)cc43)-c3ccccc32)CC1 [Example 1-46, 13-cyclohexyl-5-[2-(4-ethoxycarbonylpiperazin-1-yl)-2-oxoethyl]-6,7-dihydro-5H-benzo[5,6][1,4]diazepino[7,1-a]indole-10-carboxylic acid monohydrochloride] | < 100 |
| CC(C)N1CCN(C(=O)CN2CCn3c(c(C4CCCCC4)c4ccc(C(=O)O)cc43)-c3ccccc32)CC1 [Example 1-47, 13-cyclohexyl-5-[2-(4-isopropylpiperazin-1-yl)-2-oxoethyl]-6,7-dihydro-5H-benzo[5,6][1,4]diazepino[7,1-a]indole-10-carboxylic acid dihydrochloride] | < 100 |
| CC(C)N1CCN(CCN2CCn3c(c(C4CCCCC4)c4ccc(C(=O)O)cc43)-c3ccccc32)CC1 [Example 1-48, 13-cyclohexyl-5-[2-(4-isopropylpiperazin-1-yl)ethyl]-6,7-dihydro-5H-benzo[5,6][1,4]diazepino[7,1-a]indole-10-carboxylic acid trihydrochloride] | < 100 |
| O=C(O)c1ccc2c(C3CCCCC3)c3n(c2c1)CCN(CC(=O)N1CCCOCC1)c1ccccc1-3 [Example 1-49, 13-cyclohexyl-5-[2-(1,4-oxazepan-4-yl)-2-oxoethyl]-6,7-dihydro-5H-benzo[5,6][1,4]diazepino[7,1-a]indole-10-carboxylic acid monohydrochloride] | < 100 |
| CN1CCN(C(=O)CN2CCn3c(c(C4CCCCC4)c4ccc(C(=O)O)cc43)-c3ccccc32)CC1 [Example 1-50, 13-cyclohexyl-5-[2-(4-methylpiperazin-1-yl)-2-oxoethyl]-6,7-dihydro-5H-benzo[5,6][1,4]diazepino[7,1-a]indole-10-carboxylic acid dihydrochloride] | < 100 |
| CC(=O)N1CCN(C(=O)CN2CCn3c(c(C4CCCCC4)c4ccc(C(=O)O)cc43)-c3ccccc32)CC1 [Example 1-51, 5-[2-(4-acetylpiperazin-1-yl)-2-oxoethyl]-13-cyclohexyl-6,7-dihydro-5H-benzo[5,6][1,4]diazepino[7,1-a]indole-10-carboxylic acid monohydrochloride] | < 100 |
| CN1CCN(CCN2CCn3c(c(C4CCCCC4)c4ccc(C(=O)O)cc43)-c3ccccc32)CC1 [Example 1-52, 13-cyclohexyl-5-[2-(4-methylpiperazin-1-yl)ethyl]-6,7-dihydro-5H-benzo[5,6][1,4]diazepino[7,1-a]indole-10-carboxylic acid trihydrochloride] | < 100 |
| CN1CCCN(CCN2CCn3c(c(C4CCCCC4)c4ccc(C(=O)O)cc43)-c3ccccc32)CC1 [Example 1-53, 13-cyclohexyl-5-[2-(4-methyl-1,4-diazepan-1-yl)ethyl]-6,7-dihydro-5H-benzo[5,6][1,4]diazepino[7,1-a]indole-10-carboxylic acid trihydrochloride] | < 100 |
| CN1CCCN(C(=O)CN2CCn3c(c(C4CCCCC4)c4ccc(C(=O)O)cc43)-c3ccccc32)CC1 [Example 1-54, 13-cyclohexyl-5-[2-(4-methyl-1,4-diazepan-1-yl)-2-oxoethyl]-6,7-dihydro-5H-benzo[5,6][1,4]diazepino[7,1-a]indole-10-carboxylic acid dihydrochloride] | < 100 |
| CCN1CCN(C(=O)CN2CCn3c(c(C4CCCCC4)c4ccc(C(N)=O)cc43)-c3ccccc32)CC1 [Example 1-55, 13-cyclohexyl-5-[2-(4-ethylpiperazin-1-yl)-2-oxoethyl]-6,7-dihydro-5H-benzo[5,6][1,4]diazepino[7,1-a]indole-10-carboxamide] | < 100 |
| O=C(O)c1ccc2c(C3CCCCC3)c3n(c2c1)CCN(CC(=O)N1CCCC1)c1ccccc1-3 [Example 1-56, 13-cyclohexyl-5-[2-oxo-2-(pyrrolidin-1-yl)ethyl]-6,7-dihydro-5H-benzo[5,6][1,4]diazepino[7,1-a]indole-10-carboxylic acid monohydrochloride] | < 100 |
| O=C(O)c1ccc2c(C3CCCCC3)c3n(c2c1)CCN(CCN1CCCC1)c1ccccc1-3 [Example 1-57, 13-cyclohexyl-5-[2-(pyrrolidin-1-yl)ethyl]-6,7-dihydro-5H-benzo[5,6][1,4]diazepino[7,1-a]indole-10-carboxylic acid dihydrochloride] | < 100 |
| O=C(O)c1ccc2c(C3CCCCC3)c3n(c2c1)CCN(CC(=O)N1CCOCC1)c1cc(Cl)ccc1-3 [Example 1-60, 3-chloro-13-cyclohexyl-5-[2-(morpholin-4-yl)-2-oxoethyl]-6,7-dihydro-5H-benzo[5,6][1,4]diazepino[7,1-a]indole-10-carboxylic acid monohydrochloride] | < 100 |
| O=C(O)c1ccc2c(C3CCCCC3)c3n(c2c1)CCN(CCCC(=O)N1CCOCC1)c1ccccc1-3 [Example 1-61, 13-cyclohexyl-5-[4-(morpholin-4-yl)-4-oxobutyl]-6,7-dihydro-5H-benzo[5,6][1,4]diazepino[7,1-a]indole-10-carboxylic acid monohydrochloride] | < 100 |
